According to patent US9938335B2, “Glucagon and GLP-1 co-agonist compounds” (Eli Lilly and Company, priority 2015, dated 2018):
Values after ≈ are worked out from the molar mass of the structure shown. Where two headings read alike, the source gives them in different places. Marks after values point to notes of the source that are not given here. Starred links: 1 amine or outer side, 2 acyl side, 3 side chain; linkers in the order of their positions; H or OH if unused. Non-standard residues stand in square brackets, D forms with d. Residues, ends and D or L forms follow the SMILES beside them. Groups on a side chain read outwards from the residue. *: point of attachment. C18 diacid = O=C(O)CCCCCCCCCCCCCCCCC(=O)*; γGlu = O=C(O)[C@H](CCC(=O)[*:2])N[*:1]; AEEA = NCCOCCOCC(=O)O; Aib = CC(C)(N)C(=O)O

Assays:
[1] = Solubility (RP-HPLC and HPLC-SEC, 1 week at 4° C.); type: physicochemical
Description: Solubility of compounds of the present invention is measured in an Agilent 1100 HPLC, an Agilent 1200 HPLC and a Nanodrop 2000. The following HPLC columns are used:
(a) RP-HPLC: Waters Symmetry Shield C18, 3.6 um, 4.6×100 mm
(b) HPLC-SEC: Tosoh Biosciences, TSK2000SWXL […]
All peptide concentrations are made at 10 mg/mL in the following:
(a) 10 mM Tris pH 8.0+3 mg/mL m-cresol
(b) 10 mM Tris pH 8.0+3 mg/mL m-cresol+150 mM NaCl
(c) 10 mM Tris pH 8.0+3 mg/mL m-cresol+0.02% Tween-20
5 mL of 10 mg/mL peptide dissolved in 10 mM Tris at pH 8.0 is concentrated to approximately 20 mg/mL using Amicon-ultra 3 kDa MWCO devices. The solution is filtered using Millivex 0.22 μM filters (PVDF membrane) and the final concentration is measured by the NanoDrop spectrometer. This stock solution is used to formulate to the final conditions stated above using 3× m-cresol, 10× NaCl, and 100× Tween-20 stock solutions. A 10 mg/mL PBS solution is also prepared by dissolving directly at 5 mg/mL and concentrating using Amicon-ultra 3 kDa MWCO devices.
Each solution is placed in a refrigerator at 4° C. for 1 week, with analysis by RP-HPLC to assess concentration and HPLC-SEC to assess HMW species formation. Analyses completed at T-0 week and T-1 week.
The solubility of Compounds 1-4 was measured essentially as described in this assay.

[2] = biological target: hGcg-R (Homo sapiens, UniProt P47871); assay: hGcg-R Binding Assay (SPA radioligand competition, 293HEK membranes); conditions: read-out: Ki, nM ± SEM at the hGcg-R
Sequence of hGcg-R (P47871 26-477): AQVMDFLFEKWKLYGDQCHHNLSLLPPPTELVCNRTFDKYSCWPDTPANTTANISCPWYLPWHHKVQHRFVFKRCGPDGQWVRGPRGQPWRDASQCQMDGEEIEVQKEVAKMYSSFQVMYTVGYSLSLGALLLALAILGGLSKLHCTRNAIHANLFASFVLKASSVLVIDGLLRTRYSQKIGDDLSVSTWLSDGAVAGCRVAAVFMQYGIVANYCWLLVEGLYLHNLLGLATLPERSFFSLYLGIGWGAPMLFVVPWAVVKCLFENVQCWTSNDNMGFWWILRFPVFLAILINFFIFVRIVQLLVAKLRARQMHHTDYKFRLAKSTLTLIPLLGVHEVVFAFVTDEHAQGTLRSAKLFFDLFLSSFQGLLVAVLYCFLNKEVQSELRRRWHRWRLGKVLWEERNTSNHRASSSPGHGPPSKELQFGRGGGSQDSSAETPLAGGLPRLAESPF

[3] = tested on: DIO mice (C57BL/6); assay: Glycemic control in DIO mice; type: in vivo, mouse; conditions: for Blood glucose (mg/dL) post-injection, Mean: male DIO mice, 25 nmol/kg sc once
Description: Five to six months old male DIO mice (C57BL/6) from Taconic Biosciences are used in this study. Animals are individually housed in a temperature-controlled (24° C.) facility with a 12 hour light/dark cycle (lights on 6:00), and free access to food and water. After two weeks acclimation to the facility, the mice are randomized to treatment groups (n=7/group) based on their body weight and blood glucose. Mice are injected subcutaneously once with vehicle or compounds (25 nmol/kg). Blood glucose is monitored 2 and 8 hours post-injection and then once a day at 08:00 for 4 days. OGTTs are performed at 44 and 78 hours post the peptide injection. Statistics are analyzed using ANOVA with Dunnett's comparison by JMP 6. Significance is denoted at p≤0.05 vs vehicle.

[4] = tested on: DIO mice (C57BL/6); assay: Chronic treatment in DIO mice (body weight, fat, food intake); type: in vivo, mouse
In short: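 C57BL/6 DIO mice aged 5–6 months, individually housed and randomized (N=7/group) on body weight and NMR fat mass, received SC injections on Days 1, 4, 7, 10 and 13. Body weight and food intake were measured before each injection, with fat mass re-measured by NMR at study end. Percent body-weight change was tested by ANOVA/Dunnett vs vehicle (p≤0.05).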

[5] = tested on: DIO mice (C57BL/6); assay: Acute treatment in DIO mice (PCSK9, FGF-21, cholesterol); type: in vivo, mouse; conditions: 30 nmol/kg sc, 16 hours post dose
Description: In order to investigate metabolic pathways involved with the treatment of compounds of the present invention independent of weight loss, compounds are tested in DIO mice (C57BL/6) acutely. The mice used are three to four months old on a high fat diet for at least 4 weeks. Animals are individually housed in a temperature-controlled (24° C.) facility with a 12 hour light/dark cycle (lights on 6:00), and free access to food and water. Vehicle or testing compounds were administered to mice by subcutaneous injection at 16:00 the day before the study day. Animals were sacrificed 16 hours later to collect blood via cardia puncture. Statistics are analyzed using ANOVA with Dunnett's comparison for JMP-6. Significance is denoted at p≤0.05 vs vehicle.
Food intake was decreased to a similar level in all treatment groups, which may indicate that changes in cholesterol, PCSK9 and FGF-21 are food-intake independent.

[6] = biological target: T1, hGLP-1-R (Homo sapiens, UniProt P43220); assay: Functional hGLP-1-R assay (cAMP HTRF, HEK-293 clonal cell line); type: cell-based; parameters: expressed in transfected cells; host or cells: HEK-293 clonal cell line over-expressing the receptor
T1 sequence (P43220 24-463): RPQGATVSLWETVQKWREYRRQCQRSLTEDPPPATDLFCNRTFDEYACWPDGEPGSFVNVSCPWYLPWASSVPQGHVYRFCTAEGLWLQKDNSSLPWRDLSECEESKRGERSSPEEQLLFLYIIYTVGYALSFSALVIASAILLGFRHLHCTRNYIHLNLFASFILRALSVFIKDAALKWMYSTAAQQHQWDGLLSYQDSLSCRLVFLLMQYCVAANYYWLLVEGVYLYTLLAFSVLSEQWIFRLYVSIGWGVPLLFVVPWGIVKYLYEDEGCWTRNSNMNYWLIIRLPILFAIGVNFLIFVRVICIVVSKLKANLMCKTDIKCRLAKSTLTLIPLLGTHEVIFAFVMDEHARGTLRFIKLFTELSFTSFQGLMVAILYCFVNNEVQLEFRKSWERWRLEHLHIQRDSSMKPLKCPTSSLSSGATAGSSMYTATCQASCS
Description: After a 60 minute incubation at room temperature, the resulting increase in intracellular cAMP (adenosine 3′,5′-cyclic monophosphate) is quantitatively determined using the CisBio cAMP Dynamic 2 HTRF Assay Kit (62AM4PEJ). cAMP levels within the cell are detected by adding the cAMP-d2 conjugate in cell lysis buffer (20 μl) followed by the antibody anti-cAMP-Eu^3+-Cryptate, also in cell lysis buffer (20 μl).
A relative EC50 value and percent top (Emax) are derived by non-linear regression analysis using the percent maximal response vs. the concentration of peptide added, fitted to a four-parameter logistic equation (Genedata Screener®).
Means for EC50 are expressed as Geometric means±standard error of the mean (SEM) with the number of replicates (n) indicated in parenthesis. Means for Emax are expressed as the arithmetic mean±standard error. ND signifies that agonist activity was not detected.

[7] = biological target: T1, hGLP-1-R; assay: hGLP-1R Binding Assay (SPA radioligand competition, 293HEK membranes); parameters: expressed in transfected cells; host or cells: 293HEK, stably transfected with plasmid phD, Hygromycin-selected; crude plasma membranes; conditions: read-out: Ki, nM ± SEM at the hGLP-1-R
[8] = 15 nmol/kg sc every three days for 15 days
[9] = 30 nmol/kg sc every three days for 15 days

CC(C)C[C@H](NC(=O)[C@H](CC(C)C)NC(=O)[C@H](Cc1c[nH]c2ccccc12)NC(=O)[C@H](CCC(=O)O)NC(=O)[C@@H](NC(=O)[C@H](Cc1ccccc1)NC(=O)[C@H](CCC(=O)O)NC(=O)[C@H](CCCCNC(=O)COCCOCCNC(=O)COCCOCCNC(=O)CC[C@H](NC(=O)CC[C@H](NC(=O)CCCCCCCCCCCCCCCCC(=O)O)C(=O)O)C(=O)O)NC(=O)[C@H](C)NC(=O)[C@H](CCCCN)NC(=O)[C@H](CCCCN)NC(=O)[C@H](CCC(=O)O)NC(=O)[C@H](CC(=O)O)NC(=O)[C@H](CC(C)C)NC(=O)[C@H](Cc1ccc(O)cc1)NC(=O)[C@H](CCCCN)NC(=O)[C@H](CO)NC(=O)[C@H](Cc1ccc(O)cc1)NC(=O)[C@H](CC(=O)O)NC(=O)[C@H](CO)NC(=O)[C@@H](NC(=O)[C@H](Cc1ccccc1)NC(=O)[C@@H](NC(=O)CNC(=O)[C@H](CCC(N)=O)NC(=O)C(C)(C)NC(=O)[C@@H](N)Cc1c[nH]cn1)[C@@H](C)O)[C@@H](C)O)C(C)C)C(=O)N[C@@H](CO)C(=O)NCC(=O)NCC(=O)N1CCC[C@H]1C(=O)N[C@@H](CO)C(=O)N[C@@H](CO)C(=O)NCC(N)=O [Compound 3] (H-H[Aib]QGTFTSDYSKYLDEKKAK([AEEA-AEEA-γGlu-γGlu-C18 diacid])EFVEWLLSGGPSSG-NH2; N-terminus assumed)
solubility at 1 week ([1]; 10 mM Tris pH 8.0 + 3 mg/mL m-cresol + 0.02% Tween-20, Tris pH 8 + 3 mg/mL m-cresol + 0.02% Tween-20): 10000 µg/mL | solubility at 1 week ([1]; 10 mM Tris pH 8.0 + 3 mg/mL m-cresol + 150 mM NaCl, Tris pH 8 + 3 mg/mL m-cresol + 150 mm NaCl): 10000 µg/mL | solubility at 1 week ([1]; 10 mM Tris pH 8.0 + 3 mg/mL m-cresol, Tris pH 8 + 3 mg/mL m-cresol): 10000 µg/mL | HMW species formation by SEC-HPLC ([1]; 1 week at 4° C.): No observed HMW species formation by SEC-HPLC; | solubility at 1 week ([1]; PBS pH 7.4, pH 7.4, read-out: solubility in PBS, pH 7.4): 10000 µg/mL (≈ 2160 µM) | visible precipitation or phase separation ([1]; after 1 week storage at 4° C.): No visible precipitation or phase separation observed after 1 week | Ki [2]: 37.3 ± 4.2 nM | 44 hours Glucose AUC (% of Vehicle) ([3]; OGTT 44 hours post-injection, 25 nmol/kg sc): 35* % of Vehicle | 78 hours Glucose AUC (% of Vehicle) ([3]; OGTT 78 hours post-injection, 25 nmol/kg sc): 76* % of Vehicle | glucose excursions post an oral glucose challenge ([3]; OGTTs at 44 and 78 hours post injection, 25 nmol/kg): lower glucose excursions post an oral glucose challenge at 44 hour | Blood glucose (mg/dL) post-injection, Mean ([3]; 2 hours post-injection): 173.4 mg/dL | Blood glucose (mg/dL) post-injection, Mean ([3]; 8 hours post-injection): 81.4 mg/dL | Blood glucose (mg/dL) post-injection, Mean ([3]; 24 hours post-injection): 96.6 mg/dL | Blood glucose (mg/dL) post-injection, Mean ([3]; 48 hours post-injection): 95.8 mg/dL | Blood glucose (mg/dL) post-injection, Mean ([3]; 72 hours post-injection): 104.7 mg/dL | Blood glucose (mg/dL) post-injection, Mean ([3]; 96 hours post-injection): 141.1 mg/dL | Body Fat (% change vs. vehicle from Day 1) [4, 8]: −32* % | Body Weight (% change vs. vehicle from Day 1) [4, 8]: −17* % | Body Fat (% change vs. vehicle from Day 1) [4, 9]: −67* % | Body Weight (% change vs. vehicle from Day 1) [4, 9]: −37* % | Cholesterol (% of vehicle) [5]: 55.6* % of vehicle | FGF-21 (% of vehicle) [5]: 1124* % of vehicle | PCSK9 (% of vehicle) [5]: 15.6* % of vehicle | Emax ([6]; HEK293): 105 ± 5% | EC50 ([6]; cAMP, 60 minute incubation, 0.25% FBS, 0.05% BSA, geometric mean, read-out: Human GLP-1-R EC50, nM ± SEM (n)): 34.3 ± 9.4 nM | Ki [7]: 8.68 ± 1.6 nM
